The record followed here is patent publication US8518952B2, “6 substituted 2-heterocyclylamino pyrazine compounds as CHK-1 inhibitors” (Pfizer Inc., priority 2008, dated 2013).

Experiment [1] concerns Mia Paca-2 cells. As to the kind of experiment: Histone H3 (Ser10) phosphorylation ELISA, abrogation of camptothecin-induced G2 arrest (CHK-1 cellular assay). Format: cell-based. As to conditions: Homo sapiens, camptothecin 8 hrs, then compound with nocodozole 16 hours. An outline of the steps:
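HeLa cells, or Mia Paca-2 where marked, were damaged with camptothecin for 8 h, then exposed to compound with nocodazole for 16 h. Mitotic entry was read as phospho-histone H3 (Ser10) by sandwich ELISA, with absorbance at 450 nm. EC50 came from four-parameter sigmoid fitting.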

The target in experiment [2] is T1, CHK1 (kinase domain) (Homo sapiens, UniProt O14757).
T1 construct: a solution containing 1 nM of CHK1 (kinase domain)
T1 sequence (O14757 9-265 limits assumed): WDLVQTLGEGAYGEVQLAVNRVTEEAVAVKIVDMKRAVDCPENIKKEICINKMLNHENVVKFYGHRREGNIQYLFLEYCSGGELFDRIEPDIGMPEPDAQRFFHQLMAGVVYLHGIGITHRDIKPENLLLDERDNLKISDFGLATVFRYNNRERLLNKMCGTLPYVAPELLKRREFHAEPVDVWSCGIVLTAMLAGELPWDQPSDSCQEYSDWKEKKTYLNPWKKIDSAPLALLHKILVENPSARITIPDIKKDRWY
As to the kind of experiment: CHK1 Ki determination, spectrophotometric coupled (pyruvate kinase/lactate dehydrogenase) assay. It is filed as biochemical. As to conditions: CHK-1 kinase domain; 150 uM ATP, 125 uM Syntide 2. An outline of the steps: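 Ki values, or % inhibition where no Ki was obtained, come from a tight-binding fit that uses active enzyme concentration and the ATP Km. Rates were followed as NADH loss at 340 nm, with ADP production coupled via pyruvate kinase and lactate dehydrogenase. Reactions with ATP (150 uM) and Syntide 2 (125 uM) were started after the CHK1 kinase domain had stood with inhibitor for 15 min.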

Where [3] appears, read: Mia Paca-2 cells (entries marked *).
The mark [4] stands for this setting: MIA PaCa-2, Mia Paca-2 cells (entries marked *).

Molecules are shown by their SMILES. Counter-ions that a name gives are not always drawn.

One may read the EC50 as the concentration needed to bring the measured effect to its halfway point. A higher EC50 goes with a less potent agent. A word on the Ki: it is a measure of affinity in units of concentration, obtained from inhibition or displacement. A low value points to higher affinity. `c1ccn2c(-c3cncc(N[C@@H]4C[C@@H]5CN[C@H]4C5)n3)cnc2c1` [Example 123, (1S,4R,6R)-N-(6-imidazo[1,2-a]pyridin-3-ylpyrazin-2-yl)-2-azabicyclo[2.2.1]heptan-6-amine]: the EC50 in experiment [1] (setting [3]) was found to be 22.9 nM. The molecule also yielded a Ki in experiment [2] of 3.22 nM.
In the case of `COC[C@@H]1C[C@@H](Nc2cncc(-c3cnn4ccccc34)n2)CN1` [Example 261, N-[(3R,5S)-5-(methoxymethyl)pyrrolidin-3-yl]-6-(pyrazolo[1,5-a]pyridin-3-yl)pyrazin-2-amine], the EC50 in experiment [1] (setting [3]) amounted to 37 nM. In experiment [2], the affinity corresponds to a Ki of 14.9 nM.
The like results for `c1cn2c(-c3cncc(N[C@@H]4CCCNC4)n3)cnc2cn1` [Example 4, 6-Imidazo[1,2-a]pyrazin-3-yl-N-[(3R)-piperidin-3-yl]pyrazin-2-amine] were, in that order, 92.8 nM and 7.74 nM.
Molecule `CC(C)OC[C@@H]1C[C@@H](Nc2cncc(-c3cnc4ccccn34)n2)CN1` [Example 158, 6-(imidazo[1,2-a]pyridin-3-yl)-N-{(3R,5S)-5-[(propan-2-yloxy)methyl]pyrrolidin-3-yl}pyrazin-2-amine] had an EC50 in experiment [1] (setting [3]) of 129 nM. For the same molecule, in experiment [2], the Ki amounted to 49.8 nM.
For the molecule `C[C@@H]1NCCC[C@H]1Nc1cncc(-c2cnc3ccc(C(F)(F)F)cn23)n1` [Example 227, N-[(2S,3R)-2-methylpiperidin-3-yl]-6-[6-(trifluoromethyl)imidazo[1,2-a]pyridin-3-yl]pyrazin-2-amine], in experiment [1] (setting [4]), the response was half-maximal at 1000 nM (EC50). This molecule also displayed a Ki in experiment [2] of 92 nM.
`C[C@H]1NCCC[C@H]1Nc1cncc(-c2cnc3ccc(Cl)cn23)n1` [Example 226, 6-(6-chloroimidazo[1,2-a]pyridin-3-yl)-N-[(2R,3R)-2-methylpiperidin-3-yl]pyrazin-2-amine] displayed an EC50 in experiment [1] (setting [4]) of 7.17 nM. In experiment [2], the affinity, expressed as Ki, was 4.6 nM.
In experiment [1] (setting [4]), `Nc1ccc2ncc(-c3cncc(N[C@@H]4CCCNC4)n3)n2c1` [Example 233, 3-{6-[(3R)-piperidin-3-ylamino]pyrazin-2-yl}imidazo[1,2-a]pyridin-6-amine] yielded an EC50 of 75.5 nM. The same molecule came in with a Ki in experiment [2] of 3.4 nM.
On to `CC(C)c1cn2c(-c3cncc(N[C@@H]4CCCNC4)n3)cnc2s1` [Example 160, N-[(3R)-piperidin-3-yl]-6-[2-(propan-2-yl)imidazo[2,1-b][1,3]thiazol-5-yl]pyrazin-2-amine], for which, in experiment [1] (setting [3]), the EC50 is 25.7 nM. Further, the affinity in experiment [2] corresponds to a Ki of 1.07 nM.
In turn, `N#Cc1ccc2c(-c3cncc(N[C@@H]4CCCNC4)n3)cnn2c1` [Example 21, 3-{6-[(3R)-piperidin-3-ylamino]pyrazin-2-yl}pyrazolo[1,5-a]pyridine-6-carbonitrile] returned an EC50 in experiment [1] (setting [3]) of 68.8 nM. The same molecule displayed a Ki in experiment [2] of 6.02 nM.
The like results for `c1cn2ncc(-c3cncc(N[C@@H]4CCCNC4)n3)c2cn1` [Example 251, N-[(3R)-piperidin-3-yl]-6-(pyrazolo[1,5-a]pyrazin-3-yl)pyrazin-2-amine, acetate salt] were, in that order, 255 nM and 10 nM.
With `CCOc1cc2c(cn1)ncn2-c1cncc(N[C@@H]2CCCNC2)n1` [Example 257, 6-(6-ethoxy-1H-imidazo[4,5-c]pyridin-1-yl)-N-[(3R)-piperidin-3-yl]pyrazin-2-amine], in experiment [1] (setting [3]), the EC50 was 166 nM. This molecule gave a Ki in experiment [2] of 12.6 nM.
With `Clc1cc2c(cn1)ncn2-c1cncc(N[C@@H]2CCCNC2)n1` [Example 255, 6-(6-chloro-1H-imidazo[4,5-c]pyridin-1-yl)-N-[(3R)-piperidin-3-yl]pyrazin-2-amine], the EC50 in experiment [1] (setting [3]) is 597 nM. Besides, the Ki in experiment [2] is 34.5 nM.
On to `Cc1cn2c(-c3cncc(N[C@@H]4CCCN[C@@H]4C)n3)cnc2s1` [Example 161, 6-(2-methylimidazo[2,1-b][1,3]thiazol-5-yl)-N-[(2R,3R)-2-methylpiperidin-3-yl]pyrazin-2-amine], for which the EC50 in experiment [1] (setting [3]) is 5.66 nM. The molecule further had a Ki in experiment [2] of 1.47 nM.
The like results for `Cc1nn2c(-c3cncc(N[C@@H]4CCCNC4)n3)cnc2s1` [Example 120, 6-(2-methylimidazo[2,1-b][1,3,4]thiadiazol-5-yl)-N-[(3R)-piperidin-3-yl]pyrazin-2-amine] were, in that order, 686 nM and 34.3 nM.
Molecule `Fc1ccc2ncc(-c3cncc(N[C@@H]4CCCNC4)n3)n2c1` [Example 87, 6-(6-fluoroimidazo[1,2-a]pyridin-3-yl)-N-[(3R)-piperidin-3-yl]pyrazin-2-amine] came in with an EC50 in experiment [1] (setting [4]) of 127 nM. Besides, the Ki in experiment [2] was found to be 8.63 nM.
`Cc1cn2c(-c3cncc(N[C@@H]4CCCNC4)n3)cnc2cn1` [Example 135, 6-(6-methylimidazo[1,2-a]pyrazin-3-yl)-N-[(3R)-piperidin-3-yl]pyrazin-2-amine] came in with an EC50 in experiment [1] (setting [3]) of 208 nM. The affinity in experiment [2] corresponds to a Ki of 12.6 nM.
In the case of `FC(F)(F)c1ccc2ncc(-c3cncc(NC4CNCCC4(F)F)n3)n2c1` (centres unmarked) [Example 231, N-(4,4-difluoropiperidin-3-yl)-6-[6-(trifluoromethyl)imidazo[1,2-a]pyridin-3-yl]pyrazin-2-amine], the EC50 in experiment [1] (setting [4]) worked out at 20000 nM. In experiment [2], this molecule registered a Ki of 28.6 nM.
Take `CCOC[C@@H]1C[C@@H](Nc2cncc(-c3cnc4cc(OC)ccn34)n2)CN1` [Example 243, N-[(3R,5S)-5-(ethoxymethyl)pyrrolidin-3-yl]-6-(7-methoxyimidazo[1,2-a]pyridin-3-yl)pyrazin-2-amine]: the EC50 in experiment [1] (setting [3]) came out at 172 nM. The molecule further registered a Ki in experiment [2] of 24.8 nM.
As for `COc1cc2ncn(-c3cncc(N[C@@H]4CCCNC4)n3)c2cn1` [Example 18, 6-(6-methoxy-3H-imidazo[4,5-c]pyridin-3-yl)-N-[(3R)-piperidin-3-yl]pyrazin-2-amine], the EC50 in experiment [1] (setting [3]) came out at 19.1 nM. In experiment [2], this molecule displayed a Ki of 1.23 nM.
In turn, `c1ncc(-n2cnc3cnc(N4CCOCC4)cc32)nc1N[C@@H]1CCCNC1` [Example 272, 6-[6-(morpholin-4-yl)-1H-imidazo[4,5-c]pyridin-1-yl]-N-[(3R)-piperidin-3-yl]pyrazin-2-amine] showed an EC50 in experiment [1] (setting [3]) of 2010 nM. This molecule also returned a Ki in experiment [2] of 40.8 nM.
`C[C@@H]1CNC[C@@H]1Nc1cncc(-c2cnc3sccn23)n1` [Example 181, 6-(imidazo[2,1-b][1,3]thiazol-5-yl)-N-[(3R,4R)-4-methylpyrrolidin-3-yl]pyrazin-2-amine]: the EC50 in experiment [1] (setting [3]) was determined as 26.1 nM. The molecule further displayed a Ki in experiment [2] of 7.2 nM.
With `C[C@@H]1C[C@@H](Nc2cncc(-c3cnc4cc(C#N)ccn34)n2)CN1` [Example 189, 3-(6-{[(3R,5R)-5-methylpyrrolidin-3-yl]amino}pyrazin-2-yl)imidazo[1,2-a]pyridine-7-carbonitrile], the EC50 in experiment [1] (setting [3]) amounted to 626 nM. Also, the Ki in experiment [2] was determined as 17.9 nM.
For `Oc1ccn2c(-c3cncc(N[C@@H]4CCCNC4)n3)cnc2c1` [Example 137, 3-{6-[(3R)-piperidin-3-ylamino]pyrazin-2-yl}imidazo[1,2-a]pyridin-7-ol], in experiment [1] (setting [4]), the midpoint of the response, the EC50, lay at 256 nM. Moreover, the Ki in experiment [2] was 2.4 nM.
`COc1ccn2c(-c3cncc(N[C@@H]4C5CCN(CC5)[C@@H]4C)n3)cnc2c1` [Example 19, (2R,3R)—N-[6-(7-methoxyimidazo[1,2-a]pyridin-3-yl)pyrazin-2-yl]-2-methyl-1-azabicyclo[2.2.2]octan-3-amine] returned an EC50 in experiment [1] (setting [3]) of 10000 nM. The affinity in experiment [2] corresponds to a Ki of 167 nM.
Take `CCOc1ccc2c(c1)ncn2-c1cncc(N[C@H]2CN[C@H](COC)C2)n1` [Example 269, 6-(5-ethoxy-1H-benzimidazol-1-yl)-N-[(3R,5S)-5-(methoxymethyl)pyrrolidin-3-yl]pyrazin-2-amine]: in experiment [1] (setting [3]), the midpoint of the response, the EC50, lay at 73 nM. This molecule registered an inhibition constant (Ki) in experiment [2] of 9.76 nM.
In the same order, the values of `CCOC[C@@H]1C[C@@H](Nc2cncc(-c3cnc4cc(C)ccn34)n2)CN1` [Example 241, N-[(3R,5S)-5-(ethoxymethyl)pyrrolidin-3-yl]-6-(7-methylimidazo[1,2-a]pyridin-3-yl)pyrazin-2-amine] are 201 nM and 45 nM.
In experiment [1] (setting [3]), `FC[C@@H]1CNC[C@@H]1Nc1cncc(-c2cnc3ccccn23)n1` [Example 130, N-[(3R,4R)-4-(fluoromethyl)pyrrolidin-3-yl]-6-imidazo[1,2-a]pyridin-3-ylpyrazin-2-amine] came in with an EC50 of 139 nM. The Ki in experiment [2] is 4.86 nM.
Turning to `CCOc1ccc2c(c1)ncn2-c1cncc(N[C@@H]2CCNC2)n1` [Example 217, 6-(5-ethoxy-1H-benzimidazol-1-yl)-N-[(3R)-pyrrolidin-3-yl]pyrazin-2-amine], a half-maximal effect in experiment [1] (setting [3]) (EC50) was put at 36.4 nM. In experiment [2], the Ki was 6.99 nM.
